The values that follow come from patent publication US6436948B1, “Method for the treatment of psoriasis and genital warts” (priority 1995, dated 2002).

The structures appear in SMILES notation. Read-outs that look alike come from different tables or passages of the source.

One data set has as its system NCr nude mice. It counts as in vivo. As to conditions: mouse, in vivo, 25 mg/kg. The protocol:
(§1) Drugs were given at the indicated doses on days 0 through 4 and tumor sizes were measured every several days. The tumor growth curves were generated as described in Bell, et al., Cancer(phila.) 36:2437-2440 (1975), and are illustrated in FIGS. 5(a) and 5(b).
Toxicity was evaluated by changes in body weight.

In data set [1] the test system is DU-145 prostate carcinoma line. The data set can be described thus: In vitro cytotoxicity, methylene blue assay / cell count: DU-145. It is filed as cell-based. The following applies: read-out: ID50 (the source's name).
The test system of another data set is CEM cells. The experiment in a line: In vitro cytotoxicity, methylene blue assay / cell count: CEM. As to conditions: three generations, mean ± standard deviation of five experiments, read-out: ID50 (the source's name). It counts as cell-based.
A further data set deals with HepG2 cells. The data set can be described thus: In vitro cytotoxicity, methylene blue assay / cell count: HepG2. As to conditions: three generations, mean ± standard deviation of five experiments, read-out: ID50 (the source's name). It counts as cell-based.
The test system of the next data set is HepG2 tumors. The data set can be described thus: HepG2 xenograft in NCr nude mice. The following applies: 25 mg/kg twice a day on days 0 through 4, NCr nude mice. It counts as in vivo, human. The protocol:
(§2) FIG. 5 is a graph of the inhibition of human tumor growth by […]. Three to six week old NCr nude mice were inoculated subcutaneously in each flank with 2×10^6 HepG2 or DU-145 cells. Treatment was started when the tumors were in an advanced stage of growth. Drugs were administered twice a day on days 0 through 4 and tumor sizes were measured on the indicated days. […] Each data point represents the means±SD of 10 tumors in graph A and six tumors in graph B.
(§3) Three to six-week-old NCr nude mice (Taconic Immunodeficient Mice and Rats) were inoculated s.c. in each flank with 2×10^6HepG2 or DU-145 cells and tumors were allowed to grow. Treatment was started when the tumors were 100-250mg as determined by caliper measurement and calculated according to the formula:
(§4) Tumor Weight(mg)=length(mm)×width(mm^2)÷2
as §1
(In general: A xenograft is tissue or cells of one species grown in another, often human tumour cells in immunodeficient mice.)

For another data set, the system named is DU-145 tumors. The experiment in a line: DU-145 xenograft in NCr nude mice. It is filed as in vivo, human. As to conditions: 25 mg/kg twice a day on days 0 through 4, NCr nude mice. The protocol:
as §2, §3, §4, §1

Data set [2] has as its system KB nasopharyngeal carcinoma cell line. The data set can be described thus: In vitro cytotoxicity, methylene blue assay / cell count: KB. As to conditions: three generations, mean ± standard deviation of five experiments, read-out: ID50 (the source's name). It counts as cell-based.
Data set [3] relates to PC-3 prostate carcinoma line. The data set can be described thus: In vitro cytotoxicity, methylene blue assay / cell count: PC-3. The following applies: three generations, mean ± standard deviation of five experiments, read-out: ID50 (the source's name). It is filed as cell-based.
In a further data set the test system is 2.2.15 line. The data set can be described thus: In vitro cytotoxicity, methylene blue assay / cell count: 2.2.15. It counts as cell-based. The following applies: three generations, mean ± standard deviation of five experiments, read-out: ID50 (the source's name).
For a further data set, the system named is tumor cell lines tested. The experiment in a line: In vitro cytotoxicity, statement on all tumor cell lines tested. It counts as cell-based. As to conditions: all of the tumor cell lines tested.

Procedure for 2.2.15 line: Cells in logarithmic growth were plated at a density of 5000 cells/mL/well in 24-well plates. Drugs were added to the cells at different dosages and cultures were maintained for a period of three generations. At the end of this time, methylene blue assays were performed and/or cell numbers were directly counted. […] IC50 values were determined by interpolation of the plotted data. Each value shown is the mean± standard deviation of five experiments with each data point done in duplicate.
HepG2 cells originate from hepatocellular carcinoma and the 2.2.15 line is derived from HepG2 cells which were transfected with a copy of the hepatitis B virus genome.

For the compound `Nc1ccn([C@@H]2O[C@H](CO)[C@@H](O)[C@@H]2O)c(=O)n1` [AraC, Cytosine arabinoside], the “Toxicity as indicated by weight loss of the animals” value in the data set on NCr nude mice is given as “equally toxic”. Moreover, the IC50 in data set [1] (Homo sapiens) is 0.17 ± 0.035 µM; in the data set with CEM cells (Homo sapiens, CCRF-CEM), 0.03 ± 0.01 µM; in the data set on HepG2 cells (Homo sapiens), 0.125 ± 0.013 µM; in data set [2] it was 0.152 ± 0.01 µM; in data set [3], 0.2 ± 0.078 µM. For the same compound, the “Effect on HepG2 tumors in words” value in the data set on HepG2 tumors was “ineffective”; in the data set with HepG2 tumors (listed as arac), “inactive”. Besides, in the data set on DU-145 tumors, the “Effect on DU-145 tumors in words” value is “ineffective”.

Turning to `O=c1ccn(C2COC(CO)O2)c(=O)[nH]1` (single isomer, unassigned; (-)) [(−)-OddU], the IC50 in [1] (three generations, mean ± standard deviation of five experiments) was over 30 µM; with CEM cells, over 30 µM; with 2.2.15 line it was over 30 µM; with HepG2 cells it was over 30 µM; in data set [2], over 30 µM; in data set [3] it was over 30 µM. For the same compound, the Cytotoxicity in words result with tumor cell lines tested is “not toxic”.
